Legend:
CD2F1 male mice = assay: 30-day survival following lethal total body irradiation; format: in vivo
Method: In this Example, the effects of systemic administration of RRx-001 on survival in response to a lethal dose of radiation was assayed in mice. CD2F1 male mice 9.5-11 weeks old were administered a single dose of RRx-001 by intraperitoneal (IP) injection 24 hours prior to a lethal radiation dose. 24 mice received 10 mg/kg RRx-001 (formulated in 5% DMSO in sterile H2O) and 24 mice received the vehicle control (5% DMSO in sterile H2O only).
The mice were subjected to total body irradiation (TBI) with 9.35 Gy (LD70/30) at 0.6 Gy/min using High-level Cobalt-60. Unanesthetized mice were placed in well-ventilated Plexiglas restrainers and irradiated bilaterally. Sham-irradiated mice were also placed in identical Plexiglas restrainers and kept in a room shielded from irradiation at the same time. In each experiment, the dose to the abdominal cores of the animals was delivered at a dose rate of approximately 0.6 Gy/min. Dosimetry was performed prior to the irradiation of the animals using the highly accurate alanine/electron spin resonance (ESR) dosimetry system (American Society for Testing and Materials, Standard E 1607) to measure dose rates (to water) in the cores of acrylic mouse phantoms, which were located in the compartments of the exposure rack. A calibration curve based on standard alanine calibration dosimeters provided by the National Institute of Standards and Technology (NIST, Gaithersburg, Md.) was used to measure the doses. The accuracy of the dose rate calibrations has been verified several times using the services of the National Physics Laboratory (UK National Standards Laboratory, London, UK) and the M.D. Anderson Cancer Center (Houston, Tex.). The corrections applied to the measured dose rates in the phantoms were for a small difference in the Co-60 energy between the mass energy-absorption coefficients for soft tissue and water, as well as source decay. The radiation field was uniform within ±1.2%.
Mice were monitored at least twice a day for 30 days post-irradiation. During the critical period (days 10-20), mice were monitored at least three times a day with no more than 10 hours between observations. Mice displaying any signs of discomfort received food in their cage as a wet mash. Mice displaying overt dyspnea, weight loss, lethargy, or other markers of moribundity and appearing to be in distress were humanely euthanized in a separate room using carbon dioxide gas followed by cervical dislocation after breathing stopped as a confirmatory method of euthanasia. This experiment was repeated for a total of n=24 mice per group.
Survival curves were estimated using the Kaplan-Meier method and were compared using a two-sided log-rank test at the 0.05 significance level. P-values were considered statistically significant if less than 0.05.

NQO-1 = assay: Western blot of NQO-1 in U937 macrophages; format: cell-based, human; details: 3 mM RRx-001 for 16 hours, sham and irradiated groups
Method: (§1) Expression of ARE proteins was assayed in hMSC, macrophages, and monocytes following in vitro irradiation of the cells, which were pretreated with RRx-001 or vehicle. Protein expression was assayed by Western blotting and protein quantification.
(§2) hMSC were treated for 16 hours with […] RRx-001 or the vehicle control (0.05% DMSO), irradiated at 10 Gy or sham-irradiated and the protein collected 8 or 24 hours post-sham or irradiation. Human monocytic leukemic THP-1 and U937 cells were differentiated into macrophages with 50 nM Phorbol 12-myristate 13-acetate (PMA) for 24 hours before treatment. Differentiated and non-differentiated cells were treated with […] RRx-001 or 0.05% DMSO (vehicle control) for 16 hours prior to radiation. The cells were irradiated at 5 Gy or sham-irradiated and collected 4-8 hours later for both analysis. For each experiment, duplicates of each sample were run.

[1] = test system: NAD(P)H Dehydrogenase [Quinone] 1 (NQO-1); assay: Western blot of ARE protein expression in hMSC: NQO-1; format: cell-based, human; details: 5 mM RRx-001 for 16 hours, all groups
Method: Antioxidant response element (ARE) genes such as heme oxygenase 1 (HO-1), NAD(P)H Dehydrogenase [Quinone] 1 (NQO-1) and Superoxide Dismutase (SOD) are involved in the detoxification and elimination of reactive oxidants.
as §1, §2

[2] = 10 mg/kg 24 hours prior to lethal TBI, vs vehicle control

SMILES: O=C(CBr)N1CC([N+](=O)[O-])([N+](=O)[O-])C1 [RRx-001, 2-bromo-1-(3,3-dinitroazetidin-1-yl)ethan-1-one]
- increase in mean survival time (CD2F1 male mice; [2]): 7 days
- increase in survival (CD2F1 male mice; [2]): 33.4%
- survival times, means±standard errors (CD2F1 male mice; 10 mg/kg IP 24 hours prior to 9.35 Gy TBI, 30-day observation, N=24/group): 27.2 ± 1.1 days
- reduction in the 30-day death risk (CD2F1 male mice; one dose of 10 mg/kg IP 24 hours prior to 9.35 Gy (LD70/30) TBI, vs vehicle control irradiated mice): ~33.4%
- NQO-1 expression (NQO-1): no change
- NQO-1 expression [1]: slightly reduced
